Reference: publication PMC10146846, “Studying the Mechanism of Interaction of Doxofylline with Human Lysozyme: A Biophysical and In Silico Approach” (Molecules, 2023)

What was measured:
Human lysozyme [1] = target: T1, Human lysozyme (Homo sapiens, UniProt P61626); assay: UV-vis absorption titration, double-reciprocal plot; format: binding
T1 construct: gene LYZ
T1 sequence (P61626 19-148): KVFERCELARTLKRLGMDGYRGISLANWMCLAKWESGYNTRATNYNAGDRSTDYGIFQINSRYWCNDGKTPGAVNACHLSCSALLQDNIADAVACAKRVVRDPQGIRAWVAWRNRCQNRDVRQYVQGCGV
Excerpt: UV-vis absorption titration, double-reciprocal plot on Human lysozyme

Human lysozyme [2] = target: T1, Human lysozyme; assay: intrinsic fluorescence quenching, excitation […] nm; format: binding; details: double-log; sodium phosphate pH 7.4, lysozyme 10 µM, doxofylline 0–60 µM

In the case of Cn1c(=O)c2c(ncn2CC2OCCO2)n(C)c1=O [doxofylline], the Kd (Human lysozyme [1]) is reported as 5.18 µM and the Kb (Human lysozyme [2]) is reported as 22900 M⁻¹.
